Reference: US20090018134A1, “Compounds - 945” (AstraZeneca AB, priority 2007, published 2009)
Where two headings read alike, the source gives them in different places.

Molecular target: T1, mTOR (Homo sapiens, UniProt P42345)
T1 construct: FLAG; made in house
Test: In Vitro mTOR Kinase Assay (Echo), Test (a)(ii)
Assay type: biochemical
In short: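 FLAG-tagged truncated mTOR (residues 1362-2549), expressed in HEK293 and purified via the FLAG tag, phosphorylated a biotinylated peptide over 2 hours at room temperature. EDTA stopped the reaction. Phospho-T389 was detected overnight by AlphaScreen using the p70 S6K T389 antibody with Protein A/streptavidin beads; IC50 reported.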

[1] = table of enzyme assay Test (a)(ii), read-out: Test (a)(ii) IC50
[2] = read-out: mTOR Kinase Assay (Echo)

T1 sequence (P42345 1362-2549): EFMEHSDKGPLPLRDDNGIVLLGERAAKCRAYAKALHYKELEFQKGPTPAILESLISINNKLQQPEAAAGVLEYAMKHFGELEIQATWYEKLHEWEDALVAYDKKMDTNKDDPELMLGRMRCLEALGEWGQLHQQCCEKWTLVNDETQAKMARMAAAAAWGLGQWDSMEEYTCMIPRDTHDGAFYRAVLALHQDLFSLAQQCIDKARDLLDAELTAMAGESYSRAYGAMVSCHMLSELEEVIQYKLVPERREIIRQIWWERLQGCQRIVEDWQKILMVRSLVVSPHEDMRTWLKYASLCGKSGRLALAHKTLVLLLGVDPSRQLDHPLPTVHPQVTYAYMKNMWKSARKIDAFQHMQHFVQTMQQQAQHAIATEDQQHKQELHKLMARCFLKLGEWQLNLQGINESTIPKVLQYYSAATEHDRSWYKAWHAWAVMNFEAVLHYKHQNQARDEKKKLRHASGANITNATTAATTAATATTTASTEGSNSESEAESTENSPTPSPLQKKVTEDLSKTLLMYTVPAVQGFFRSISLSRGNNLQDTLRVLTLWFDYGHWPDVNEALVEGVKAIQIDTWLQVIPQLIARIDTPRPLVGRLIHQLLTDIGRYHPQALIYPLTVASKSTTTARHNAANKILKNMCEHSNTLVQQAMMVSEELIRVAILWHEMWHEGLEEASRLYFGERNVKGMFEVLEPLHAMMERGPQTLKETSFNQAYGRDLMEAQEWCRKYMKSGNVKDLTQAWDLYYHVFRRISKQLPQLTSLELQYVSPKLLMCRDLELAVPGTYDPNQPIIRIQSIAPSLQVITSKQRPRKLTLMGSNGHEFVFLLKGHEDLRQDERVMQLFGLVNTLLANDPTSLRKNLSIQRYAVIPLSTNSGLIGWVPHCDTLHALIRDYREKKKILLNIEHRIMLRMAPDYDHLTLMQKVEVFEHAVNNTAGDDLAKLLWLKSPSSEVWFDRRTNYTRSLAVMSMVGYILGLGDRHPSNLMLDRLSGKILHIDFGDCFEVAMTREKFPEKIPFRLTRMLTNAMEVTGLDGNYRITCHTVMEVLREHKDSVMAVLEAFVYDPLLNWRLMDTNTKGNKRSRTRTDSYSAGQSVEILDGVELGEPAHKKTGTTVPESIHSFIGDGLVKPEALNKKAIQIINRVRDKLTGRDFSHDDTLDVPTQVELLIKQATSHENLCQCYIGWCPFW

Compound	IC50 [1] [nM]	also measured
CN(C)CCNC(=O)Nc1ccc(-c2nc(N3CCOCC3)cc(C3(S(=O)(=O)C4CC4)CCCC3)n2)cc1 [Example 13n, 1-[4-[4-(1-cyclopropylsulfonylcyclopentyl)-6-morpholin-4-ylpyrimidin-2-yl]phenyl]-3-(2-dimethylaminoethyl)urea]	997	–
CCNC(=O)Nc1ccc(-c2nc(N3CCOCC3)cc(C3(S(=O)(=O)c4ccncc4)CC3)n2)cc1 [Example 36au, 1-ethyl-3-[4-[4-morpholin-4-yl-6-(1-pyridin-4-ylsulfonylcyclopropyl)pyrimidin-2-yl]phenyl]urea]	12.1	–
C[C@H]1COCCN1c1cc(C2(S(C)(=O)=O)CCCC2)nc(-c2ccc(NC(=O)NCCN(C)C)cc2)n1 [Example 4g, 3-(2-dimethylaminoethyl)-1-[4-[4-[(3S)-3-methylmorpholin-4-yl]-6-(1-methylsulfonylcyclopentyl)pyrimidin-2-yl]phenyl]urea]	–	IC50 [2]: 62.6 nM
C[C@H]1COCCN1c1cc(C2(S(=O)(=O)CCCO)CC2)nc(-c2ccc(NC(=O)NC(C)(C)CO)cc2)n1 [Example 31m, 3-(1-hydroxy-2-methylpropan-2-yl)-1-[4-[4-[1-(3-hydroxypropylsulfonyl)cyclopropyl]-6-[(3S)-3-methylmorpholin-4-yl]pyrimidin-2-yl]phenyl]urea]	5.91	–
CCS(=O)(=O)C1(c2cc(N3CCOC[C@@H]3C)nc(-c3ccc(NC(=O)NC4CC4)cc3)n2)CC1 [Example 11, 3-Cyclopropyl-1-[4-[4-(1-ethylsulfonylcyclopropyl)-6-[(3S)-3-methylmorpholin-4-yl]pyrimidin-2-yl]phenyl]urea]	–	IC50 [2]: 1.65 nM
C[C@H]1COC[C@H](C)N1c1cc(C2(S(=O)(=O)c3ccccc3)CC2)nc(-c2ccc(NC(=O)NCC(F)F)cc2)n1 [Example 93d, 1-[4-[4-[1-(benzenesulfonyl)cyclopropyl]-6-[(3S,5S)-3,5-dimethylmorpholin-4-yl]pyrimidin-2-yl]phenyl]-3-(2,2-difluoroethyl)urea]	0.818	–
Cc1nn(C(F)F)c(C)c1S(=O)(=O)C1(c2cc(N3CCOC[C@@H]3C)nc(-c3ccc(NC(=O)NC4CC4)cc3)n2)CC1 [Example 75, 3-Cyclopropyl-1-[4-[4-[1-[1-(difluoromethyl)-3,5-dimethylpyrazol-4-yl]sulfonylcyclopropyl]-6-[(3S)-3-methylmorpholin-4-yl]pyrimidin-2-yl]phenyl]urea]	29	–
CCCNC(=O)Nc1ccc(-c2nc(N3CCOC[C@@H]3C)cc(C3(S(=O)(=O)CCCO)CCC3)n2)cc1 [Example 43k, 3-[4-[4-[1-(3-hydroxypropylsulfonyl)cyclobu-tyl]-6-[(3S)-3-methylmorpholin-4-yl]pyrimidin-2-yl]phenyl]-1-propylurea]	25.7	–
CNC(=O)Nc1ccc(-c2nc(N3CCOCC3)cc(C3(S(C)(=O)=O)CC3)n2)cc1 [Example 12a, 3-methyl-1-[4-[4-(1-methylsulfonylcyclopropyl)-6-morpholin-4-ylpyrimidin-2-yl]phenyl]urea]	–	IC50 [2]: 1.67 nM
CS(=O)(=O)C1(c2cc(N3CCOCC3)nc(-c3ccc(NC(=O)NC4CC4)cc3)n2)CC1 [Example 12, 3-Cyclopropyl-1-[4-[4-(1-methylsulfonylcyclopropyl)-6-morpholin-4-ylpyrimidin-2-yl]phenyl]urea]	–	IC50 [2]: 4.21 nM
C[C@H]1COCCN1c1cc(C2(S(=O)(=O)CCO)CC2)nc(-c2ccc(NC(=O)NC3(CO)CC3)cc2)n1 [Example 16i, 1-[4-[4-[1-(2-hydroxyethylsulfonyl)cyclopropyl]-6-[(3S)-3-methylmorpholin-4-yl]pyrimidin-2-yl]phenyl]-3-[1-(hydroxymethyl)cyclopropyl]urea]	845	–
C[C@H]1COCCN1c1cc(C2(S(=O)(=O)C3CCCC3)CC2)nc(-c2ccc(NC(=O)NC3CC3)cc2)n1 [Example 9, 1-[4-[4-(1-Cyclopentylsulfonylcyclopropyl)-6-[(3S)-3-methylmorpholin-4-yl]pyrimidin-2-yl]phenyl]-3-cyclopropyl-urea]	–	IC50 [2]: 1.8 nM
C[C@H]1COCCN1c1cc(C2(S(=O)(=O)c3nccs3)CCC2)nc(-c2ccc(NC(=O)NC(C)(C)CO)cc2)n1 [Example 98g, 3-(1-hydroxy-2-methylpropan-2-yl)-1-[4-[4-[(3S)-3-methylmorpholin-4-yl]-6-[1-(1,3-thiazol-2-ylsulfonyl)cyclobutyl]pyrimidin-2-yl]phenyl]urea]	12.7	–
C[C@H]1COC[C@H](C)N1c1cc(C2(S(=O)(=O)c3ccccc3)CC2)nc(-c2ccc(NC(=O)NCCO)cc2)n1 [Example 93b, 1-[4-[4-[1-(benzenesulfonyl)cyclopropyl]-6-[(3S,5S)-3,5-dimethylmorpholin-4-yl]pyrimidin-2-yl]phenyl]-3-(2-hydroxyethyl)urea]	2.3	–
CC(C)NC(=O)Nc1ccc(-c2nc(N3CCOC[C@@H]3C)cc(C3(S(=O)(=O)C(C)(C)C)CC3)n2)cc1 [Example 18d, 1-[4-[4-(1-tert-butylsulfonylcyclopropyl)-6-[(3S)-3-methylmorpholin-4-yl]pyrimidin-2-yl]phenyl]-3-propan-2-ylurea]	15.1	–
CCCNC(=O)Nc1ccc(-c2nc(N3CCOC[C@@H]3C)cc(C3(S(=O)(=O)c4ccc(F)cc4)CC3)n2)cc1 [Example 8h, 3-[4-[4-[1-(4-fluorophenyl)sulfonylcyclopropyl]-6-[(3S)-3-methylmorpholin-4-yl]pyrimidin-2-yl]phenyl]-1-propyl-urea]	–	IC50 [2]: 1.76 nM
C[C@H]1COCCN1c1cc(C2(S(=O)(=O)c3cc(F)cc(F)c3)CC2)nc(-c2ccc(NC(=O)NC3CCC3)cc2)n1 [Example 19a, 3-cyclobutyl-1-[4-[4-[1-(3,5-difluorophenyl)sulfonylcyclopro-pyl]-6-[(3S)-3-methylmorpholin-4-yl]pyrimidin-2-yl]phenyl]urea]	4.25	–
C[C@H]1COCCN1c1cc(C2(S(=O)(=O)C3CC3)CC2)nc(-c2ccc(NC(=O)NC(C)(C)CO)cc2)n1 [Example 3k, 1-[4-[4-(1-cyclopropylsulfonylcyclopropyl)-6-[(3S)-3-methylmorpholin-4-yl]pyrimidin-2-yl]phenyl]-3-(1-hydroxy-2-methyl-propan-2-yl)urea]	–	IC50 [2]: 2.27 nM
C[C@H]1COCCN1c1cc(C2(S(=O)(=O)CCO)CC2)nc(-c2ccc(NC(=O)NC3CC3)cc2)n1 [Example 15, 3-Cyclopropyl-1-[4-[4-[1-(2-hydroxyethylsulfonyl)cyclopropyl]-6-[(3S)-3-methylmorpholin-4-yl]pyrimidin-2-yl]phenyl]urea]	1.54	–
C[C@H]1COCCN1c1cc(C2(S(C)(=O)=O)CC2)nc(-c2ccc(NC(=S)NCCO)cc2)n1 [Example 35b, 3-(2-hydroxyethyl)-1-[4-[4-[(3S)-3-methylmorpholin-4-yl]-6-(1-methylsulfonylcyclopropyl)pyrimidin-2-yl]phenyl]thiourea]	0.577	–
C[C@H]1COCCN1c1cc(C2(S(=O)(=O)c3ccccc3)CC2)nc(-c2ccc(NC(=O)NCCCl)cc2)n1 [Example 36ee, 1-[4-[4-[1-(benzenesulfonyl)cyclopropyl]-6-[(3S)-3-methylmorpholin-4-yl]pyrimidin-2-yl]phenyl]-3-(2-chloroethyl)urea]	–	IC50: 9.58 nM
CNC(=O)Nc1ccc(-c2nc(N3CCOC[C@@H]3C)cc(C3(S(=O)(=O)c4cccnc4C(=O)N(C)C)CC3)n2)cc1 [Example 50, N,N-Dimethyl-3-[1-[2-[4-(methylcarbamoylamino)phenyl]-6-[(3S)-3-methylmorpholin-4-yl]pyrimidin-4-yl]cyclopropyl]sulfonylpyridine-2-carboxamide]	10.4	–
C[C@H]1COCCN1c1cc(C2(S(=O)(=O)c3c(F)cccc3F)CC2)nc(-c2ccc(NC(=O)NCC(F)F)cc2)n1 [Example 86e, 3-(2,2-difluoroethyl)-1-[4-[4-[1-(2,6-difluorophenyl)sulfonylcyclopropyl]-6-[(3S)-3-methylmorpholin-4-yl]pyrimidin-2-yl]phenyl]urea]	2.23	–
CCNC(=O)Nc1ccc(-c2nc(N3CCOC[C@@H]3C)cc(C3(S(=O)(=O)c4ccccc4)CCOCC3)n2)cc1 [Example 36cz, 3-[4-[4-[4-(benzenesulfonyl)oxan-4-yl]-6-[(3S)-3-methylmorpholin-4-yl]pyrimidin-2-yl]phenyl]-1-ethylurea]	38.4	–
Cn1cc(NC(=O)Nc2ccc(-c3nc(N4CCOCC4)cc(C4(S(=O)(=O)c5ccncc5)CC4)n3)cc2)cn1 [Example 36as, 1-(1-methylpyrazol-4-yl)-3-[4-[4-morpholin-4-yl-6-(1-pyridin-4-ylsulfonylcyclopropyl)pyrimidin-2-yl]phenyl]urea]	9.11	–
C[C@H]1COCCN1c1cc(C2(S(=O)(=O)c3ccc(NCCF)c(Cl)c3)CC2)nc(-c2ccc(NC(=O)NCCF)cc2)n1 [Example 95j, 1-[4-[4-[1-[3-chloro-4-(2-fluoroethyl-amino)phenyl]sulfonyl-cyclopropyl]-6-[(3S)-3-methylmorpho-lin-4-yl]pyrimidin-2-yl]phenyl]-3-(2-fluoroethyl)urea]	13.1	–
CNC(=S)Nc1ccc(-c2nc(N3CCOC[C@@H]3C)cc(C3(S(C)(=O)=O)CC3)n2)cc1 [Example 35, 3-Methyl-1-[4-[4-[(3S)-3-methylmorpholin-4-yl]-6-(1-methylsulfonylcyclopropyl)pyrimidin-2-yl]phenyl]thiourea]	5.31	–
C[C@H]1COCCN1c1cc(C2(S(=O)(=O)CCCO)CC2)nc(-c2ccc(NC(=S)NC3CCC3)cc2)n1 [Example 37d, 3-cyclobutyl-1-[4-[4-[1-(3-hydroxypropylsulfonyl)cyclopro-pyl]-6-[(3S)-3-methylmorpholin-4-yl]pyrimidin-2-yl]phenyl]thiourea]	4.39	–
CNC(=O)Nc1ccc(-c2nc(N3CCOCC3)cc(C3(S(=O)(=O)c4ccncc4)CC3)n2)cc1 [Example 36at, 1-methyl-3-[4-[4-morpholin-4-yl-6-(1-pyridin-4-ylsulfonylcyclopropyl)pyrimidin-2-yl]phenyl]urea]	6.39	–
